Measured values: PubChem BioAssay (NCI)
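Interpolation was linear, between the two tested concentrations surrounding the appropriate level; five concentrations were tested over 48 hours in 96-well plates. TGI: total growth inhibition.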

Columns and labels:
Assay in all cases: NCI anticancer screen, dose series, 48 h
M19-MEL melanoma = system: M19-MEL melanoma
SNB-78 CNS = system: SNB-78 CNS
XF 498 CNS = system: XF 498 CNS
KM20L2 colon = system: KM20L2 colon
RXF-631 renal = system: RXF-631 renal

| Compound | TGI (M19-MEL melanoma) | TGI (SNB-78 CNS) | TGI (XF 498 CNS) | TGI (KM20L2 colon) | TGI (RXF-631 renal) |
| --- | --- | --- | --- | --- | --- |
| Clc1ccccc1/C=C/c1cscn1 | > 100 µM | > 100 µM | > 100 µM | – | – |
| C=CC1(C)CCC2=C(CCC3C(C)(C(=O)OC)CCCC23C)C1=O (configuration not stated) | 36 µM | 80.1 µM | – | 40.3 µM | 31.6 µM |
